Positions of bridges follow the written chain, without caps; N, C: chain ends. Non-standard residues stand in square brackets, D forms with d. Residues, ends and D or L forms follow the SMILES beside them. *: point of attachment. Ileψ(thiazoline)Cys = CC[C@H](C)[C@H](N)C1=N[C@H](C(=O)*)CS1; dOrn = NCCC[C@@H](N)C(=O)O
Key:
B. subtilis RNAP = target: T1, B. subtilis RNAP (Bacillus subtilis, UniProt P37870+P37871); test: Dual reporter assay in strain PL37: test reporter Pxyl-lacZ and ratio of control to test reporter (RES:MUG); assay type: cell-based; settings: for Ratio of the control reporter (RES): test reporter (MUG): strain PL37, DMSO control […]
T1 construct: endogenous in cells; host or cells: Bacillus subtilis strain PL37 (built from strain 168)
Experimental: (§1) 20 known antibiotics were tested at a range of concentrations to determine their effect on test and control reporters within the assay. […] Cultures of PL37 grown in PAB, were diluted to 0.05 A600 and then grown for 2 hours at 37° C. in PAB supplemented with 0.02 mM IPTG. Cells were pelleted and frozen. They were later resuspended and diluted in PAB supplemented with 0.02 mM IPTG and grown at 37° C. to early exponential phase. Cultures were then diluted to 0.05 A600 in PAB and added in 20 μl volumes to wells of microtitre plates containing 20 μl volumes of the antibiotics. Plates were incubated at 37° C. for two hours, and assay mix was added to detect reporter enzyme activity (see below).
(§2) Following the addition of 160 μl of assay mix (1.3×Z buffer containing 94 μg/ml lysozyme, 8.4 μg/ml 4-methylumbelliferyl-β-D-galactoside, 0.53 μg/ml resorufin-β-D-glucuronide and 0.05% Triton) to each well, the microtitre plate was incubated in the dark for 30 mini or 1 hour at room temperature. Fluorescence was read on a BMG FLUOstar Galaxy at excitation/emission 355/460 nm and 544/590 nm, respectively, with gains set at 5 and 25, respectively.

T7 RNAP = target: T2, T7 RNAP (Escherichia phage T7, UniProt P00573); test: Dual reporter assay in strain PL37: control reporter PT7X-gus; assay type: cell-based, bacteriophage T7; settings: strain PL37, FIG. 5
T2 construct: expressed in transfected cells; host or cells: Bacillus subtilis PL37, with Pspac-rpoT7 integrated in the chromosome and induced by IPTG
Experimental: as §1, §2

bacterial RNA polymerase = target: T3, bacterial RNA polymerase (Bacillus subtilis, UniProt P37870+P37871); test: Dual reporter assay in strain X (xylose-induced lacZ and T7 RNAP-driven gus reporters); assay type: cell-based; settings: 30 min incubation
T3 construct: endogenous in cells; host or cells: Bacillus subtilis strain X (derivative of strain 168)
Excerpt: The strain X is a derivative of the standard laboratory strain of Bacillus subtilis 168. It has been modified in three ways.
1. It carries a xylose-inducible promoter driving transcription of the well known reporter gene lacZ, encoding the enzyme β-galactosidase. The reporter gene is silent or expressed at low levels in the absence of xylose because the endogenous XylR protein binds to the promoter region, reducing the ability of RNAP to initiate transcription. On addition of xylose or similar sugar, the repressor leaves the promoter allowing RNAP to transcribe the gene strongly, resulting in increased synthesis of β-galactosidase. A simple colourigenic substrate, ONPG was used to detect the formation of the enzyme.
2. Strain X also carries a second reporter gene comprising a promoter recognised by the RNAP of bacteriophage T7. This promoter has been modified so as to be recognised and repressed by the same XylR repressor as controls the first reporter. Consequently, the promoter cannot be utilised by T7 RNAP unless xylose is present. […]
The assay was done by growing a culture of strain X in the absence of xylose and then dispensing aliquots of culture into the wells of a microtitre plate. […] The plate was incubated for 30 min to allow accumulation of the two reporter enzymes, then the cells were lysed and the two enzyme activities were measured.

[1] = Dilution Number 1 (highest concentration tested: 128, 16 or 0.5 μg/ml depending on antibiotic)
[2] = Dilution Number 11 (lowest concentration tested: 0.125, 0.016 or 0.0005 μg/ml depending on antibiotic)

T1 sequence (P37871 whole entry): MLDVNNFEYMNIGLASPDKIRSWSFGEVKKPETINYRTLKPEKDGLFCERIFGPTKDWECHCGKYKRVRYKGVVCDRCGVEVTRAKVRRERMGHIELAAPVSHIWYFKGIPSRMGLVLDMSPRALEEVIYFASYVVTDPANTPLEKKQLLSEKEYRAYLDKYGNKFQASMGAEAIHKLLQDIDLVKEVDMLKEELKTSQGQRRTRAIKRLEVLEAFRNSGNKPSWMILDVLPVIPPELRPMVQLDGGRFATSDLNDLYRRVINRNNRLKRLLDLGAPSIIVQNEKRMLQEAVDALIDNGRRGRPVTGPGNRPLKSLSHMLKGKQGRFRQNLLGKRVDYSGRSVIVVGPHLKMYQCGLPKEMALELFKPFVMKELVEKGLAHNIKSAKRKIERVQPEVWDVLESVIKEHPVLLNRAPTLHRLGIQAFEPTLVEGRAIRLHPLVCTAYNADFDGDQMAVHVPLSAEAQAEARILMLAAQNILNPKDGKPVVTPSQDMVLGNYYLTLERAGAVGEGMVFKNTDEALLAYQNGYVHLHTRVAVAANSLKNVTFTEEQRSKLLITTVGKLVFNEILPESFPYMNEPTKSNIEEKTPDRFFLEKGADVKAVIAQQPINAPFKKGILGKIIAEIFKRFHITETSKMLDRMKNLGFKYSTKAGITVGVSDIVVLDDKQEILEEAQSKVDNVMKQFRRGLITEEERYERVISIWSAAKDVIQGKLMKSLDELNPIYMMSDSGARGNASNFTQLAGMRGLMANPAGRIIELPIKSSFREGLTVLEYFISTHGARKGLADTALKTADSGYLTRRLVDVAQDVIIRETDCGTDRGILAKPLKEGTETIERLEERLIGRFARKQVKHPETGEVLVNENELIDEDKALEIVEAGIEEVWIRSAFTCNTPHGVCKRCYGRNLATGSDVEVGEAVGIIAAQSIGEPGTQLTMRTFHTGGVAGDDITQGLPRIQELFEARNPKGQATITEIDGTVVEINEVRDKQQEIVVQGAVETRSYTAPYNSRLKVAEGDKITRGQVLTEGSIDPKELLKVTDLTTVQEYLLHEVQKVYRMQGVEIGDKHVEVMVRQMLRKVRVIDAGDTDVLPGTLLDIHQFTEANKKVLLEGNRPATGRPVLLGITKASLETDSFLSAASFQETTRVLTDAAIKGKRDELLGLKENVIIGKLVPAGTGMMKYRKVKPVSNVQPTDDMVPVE
T1 sequence (P20429 whole entry, further chain): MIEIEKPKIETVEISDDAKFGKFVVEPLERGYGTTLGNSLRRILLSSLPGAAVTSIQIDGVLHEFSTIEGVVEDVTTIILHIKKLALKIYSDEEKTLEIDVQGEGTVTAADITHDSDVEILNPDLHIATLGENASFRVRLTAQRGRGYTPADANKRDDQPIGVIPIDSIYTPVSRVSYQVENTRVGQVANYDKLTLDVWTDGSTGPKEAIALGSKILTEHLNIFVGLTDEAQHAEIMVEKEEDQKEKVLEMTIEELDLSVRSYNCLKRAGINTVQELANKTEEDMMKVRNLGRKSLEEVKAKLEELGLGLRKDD
T1 sequence (O35011 whole entry, further chain): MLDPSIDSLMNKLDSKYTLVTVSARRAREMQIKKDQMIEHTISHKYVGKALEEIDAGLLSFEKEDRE
T1 sequence (P37870 whole entry): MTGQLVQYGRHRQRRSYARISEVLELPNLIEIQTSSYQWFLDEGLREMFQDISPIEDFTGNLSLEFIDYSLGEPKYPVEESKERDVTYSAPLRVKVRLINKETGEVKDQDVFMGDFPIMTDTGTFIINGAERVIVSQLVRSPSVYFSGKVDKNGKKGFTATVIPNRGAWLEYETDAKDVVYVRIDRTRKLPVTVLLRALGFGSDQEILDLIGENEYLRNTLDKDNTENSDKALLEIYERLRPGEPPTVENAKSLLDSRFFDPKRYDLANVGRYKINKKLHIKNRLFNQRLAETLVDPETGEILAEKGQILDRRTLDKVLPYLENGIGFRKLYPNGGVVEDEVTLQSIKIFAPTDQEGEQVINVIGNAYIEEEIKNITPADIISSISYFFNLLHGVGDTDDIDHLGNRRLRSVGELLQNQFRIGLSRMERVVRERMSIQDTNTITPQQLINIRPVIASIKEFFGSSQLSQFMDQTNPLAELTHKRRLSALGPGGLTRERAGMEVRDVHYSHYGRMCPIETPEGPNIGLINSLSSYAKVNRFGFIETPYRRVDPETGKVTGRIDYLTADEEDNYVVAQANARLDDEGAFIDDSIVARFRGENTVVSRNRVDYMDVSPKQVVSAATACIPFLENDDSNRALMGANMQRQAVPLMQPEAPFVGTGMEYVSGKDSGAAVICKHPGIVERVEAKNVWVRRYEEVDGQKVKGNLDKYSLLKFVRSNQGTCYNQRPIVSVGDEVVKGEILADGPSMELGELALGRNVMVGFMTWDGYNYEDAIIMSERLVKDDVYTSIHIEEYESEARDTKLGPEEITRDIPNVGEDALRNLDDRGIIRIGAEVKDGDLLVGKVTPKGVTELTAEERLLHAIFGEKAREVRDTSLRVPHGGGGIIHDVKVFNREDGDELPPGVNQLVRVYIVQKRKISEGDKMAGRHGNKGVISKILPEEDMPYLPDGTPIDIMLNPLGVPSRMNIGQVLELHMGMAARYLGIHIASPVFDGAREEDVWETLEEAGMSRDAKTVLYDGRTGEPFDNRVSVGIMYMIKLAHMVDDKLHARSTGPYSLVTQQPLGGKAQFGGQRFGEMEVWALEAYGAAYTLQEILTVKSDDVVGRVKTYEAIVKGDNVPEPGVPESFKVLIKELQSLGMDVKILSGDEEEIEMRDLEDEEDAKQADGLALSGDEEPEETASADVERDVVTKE
T2 sequence (P00573 whole entry): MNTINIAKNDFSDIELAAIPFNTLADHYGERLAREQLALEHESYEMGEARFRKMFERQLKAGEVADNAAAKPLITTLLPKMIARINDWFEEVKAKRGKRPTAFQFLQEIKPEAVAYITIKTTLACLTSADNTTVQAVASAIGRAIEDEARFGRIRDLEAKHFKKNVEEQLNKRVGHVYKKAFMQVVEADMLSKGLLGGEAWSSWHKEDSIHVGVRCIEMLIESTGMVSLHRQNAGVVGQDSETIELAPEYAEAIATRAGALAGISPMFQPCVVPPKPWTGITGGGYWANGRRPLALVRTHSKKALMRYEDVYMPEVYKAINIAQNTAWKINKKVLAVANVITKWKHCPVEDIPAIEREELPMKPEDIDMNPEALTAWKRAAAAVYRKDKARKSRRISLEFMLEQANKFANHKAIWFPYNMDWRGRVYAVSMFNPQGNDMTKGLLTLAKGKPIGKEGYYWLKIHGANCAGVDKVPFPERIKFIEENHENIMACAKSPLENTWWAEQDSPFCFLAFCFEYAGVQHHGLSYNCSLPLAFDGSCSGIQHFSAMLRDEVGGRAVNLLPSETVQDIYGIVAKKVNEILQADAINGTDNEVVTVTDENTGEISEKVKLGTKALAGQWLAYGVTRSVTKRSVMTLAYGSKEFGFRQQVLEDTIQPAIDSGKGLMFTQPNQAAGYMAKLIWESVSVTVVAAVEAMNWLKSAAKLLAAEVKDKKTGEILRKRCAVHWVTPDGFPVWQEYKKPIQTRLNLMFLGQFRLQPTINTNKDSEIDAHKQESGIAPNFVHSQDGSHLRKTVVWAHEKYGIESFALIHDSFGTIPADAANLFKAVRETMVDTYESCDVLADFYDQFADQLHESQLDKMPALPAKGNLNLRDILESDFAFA
T3 sequence (O35011 whole entry): as the sequence (O35011 whole entry, further chain) above
T3 sequence (P20429 whole entry, further chain): as the sequence (P20429 whole entry, further chain) above
T3 sequence (P37870 whole entry): as the sequence (P37870 whole entry) above
T3 sequence (P37871 whole entry): as the sequence (P37871 whole entry) above

| Structure (SMILES) | Expression of the test reporter, xyl-lacZ (B. subtilis RNAP; strain PL37, FIG. 6) | RES:MUG ratio compared with the no antibiotic control (DMSO) (B. subtilis RNAP; strain PL37, Table 2, FIG. 7) | Detection as specific inhibitor of RNA polymerase (B. subtilis RNAP; strain PL37, antibiotic panel) | Ratio of the control reporter (RES): test reporter (MUG) (B. subtilis RNAP; [1]) | Ratio of the control reporter (RES): test reporter (MUG) (B. subtilis RNAP; Dilution Number 2) | Ratio of the control reporter (RES): test reporter (MUG) (B. subtilis RNAP; Dilution Number 3) | Ratio of the control reporter (RES): test reporter (MUG) (B. subtilis RNAP; Dilution Number 4) | Ratio of the control reporter (RES): test reporter (MUG) (B. subtilis RNAP; Dilution Number 5) | Ratio of the control reporter (RES): test reporter (MUG) (B. subtilis RNAP; Dilution Number 6) | Ratio of the control reporter (RES): test reporter (MUG) (B. subtilis RNAP; Dilution Number 7) | Ratio of the control reporter (RES): test reporter (MUG) (B. subtilis RNAP; Dilution Number 8) | Ratio of the control reporter (RES): test reporter (MUG) (B. subtilis RNAP; Dilution Number 9) | Ratio of the control reporter (RES): test reporter (MUG) (B. subtilis RNAP; Dilution Number 10) | Ratio of the control reporter (RES): test reporter (MUG) (B. subtilis RNAP; [2]) | Expression of the T7 RNAP-dependent control reporter (T7 RNAP) | Reporter enzyme activities (β-galactosidase and β-glucuronidase) (bacterial RNA polymerase) |
| --- | --- | --- | --- | --- | --- | --- | --- | --- | --- | --- | --- | --- | --- | --- | --- | --- |
| CNC(=O)[C@@H](C)[C@H]1C(=O)/C(=C(O)/C=C/C(C)=C/[C@@H](C)[C@H]2O[C@@]3(C)O[C@H](C=C[C@@]34CO4)[C@@H]2C)C(=O)N1[C@@H]1CC[C@H](O)[C@H](C)O1 [Streptolydigin] | reduced drastically | greater than that of the no antibiotic control (DMSO) at several concentrations | detected as specific inhibitors of RNA polymerase | 16.44 | 16.68 | 14.07 | 10.22 | 4.88 | 2.53 | 1.74 | 1.41 | 1.27 | 1.23 | 1.16 | increased | only the reporter enzyme driven by the T7 RNAP (β-glucuronidase) was active |
| O=C(N[C@H](CO)[C@H](O)c1ccc([N+](=O)[O-])cc1)C(Cl)Cl [Chloramphenicol] |  |  |  | 1.10 | 1.22 | 1.27 | 1.40 | 1.90 | 1.51 | 1.20 | 1.16 | 1.14 | 1.13 | 1.17 |  |  |
| CC[C@H](C)[C@H](N)C1=N[C@H](C(=O)N[C@@H](CC(C)C)C(=O)N[C@H](CCC(=O)O)C(=O)N[C@H](C(=O)N[C@H]2CCCCNC(=O)[C@H](CC(N)=O)NC(=O)[C@@H](CC(=O)O)NC(=O)[C@H](Cc3cnc[nH]3)NC(=O)[C@@H](Cc3ccccc3)NC(=O)[C@H]([C@@H](C)CC)NC(=O)[C@@H](CCCN)NC2=O)[C@@H](C)CC)CS1 [Bacitracin] ({Ileψ(thiazoline)Cys}-L[dE]IK[dOrn]I[dF]H[dD]N; lactam 4-C) |  |  |  | 1.32 | 1.15 | 1.12 | 1.11 | 1.14 | 1.13 | 1.09 | 1.09 | 1.09 | 1.12 | 1.13 |  |  |

From patent US20040072206A1, “Method for identifying modulators of transcription” (priority 2000, published 2004)
